# The NIST ThermoML archive (doi:10.1016/j.jct.2007.05.001)
# Numbers after ± are expanded uncertainties.
# Assay: refractive index (Na D-line) (dimensionless)
# Settings: 293.1 K; 101.33 kPa; Liquid; Standard Abbe refractometry
row,SMILES,refractive index
1,"Cc1cccc(C)c1 [1,3-dimethylbenzene]",1.4943 ± 0.0008
2,O=CN1CCOCC1 [N-formylmorpholine],1.484 ± 0.0008
